The text below walks through data of patent publication US8354443B2, “Cyclopropane indolinone derivatives” (Hoffmann-La Roche Inc., priority 2009, dated 2013).

pEC50: −log10 of the molar value.

This test concerns recombinant AMPK proteins (α1β1γ1, α2β1γ1, α1(1-335), α1(1-394) or α2(1-394)). As to the kind of experiment: Scintillation Proximity Assay (AMPK activation). It is filed as biochemical, human. Conditions: effective concentration of activator for 50% of maximal enzyme activity; 2 hr at 30° C.; AMPK form not specified. The method, boiled down: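 Pre-phosphorylated recombinant human AMPK (α1β1γ1, α2β1γ1, α1(1-335), α1(1-394) or α2(1-394)), 50 nM, incubated 2 hr at 30° C with 2 μM biotin-SAMS, 2 μM ATP plus [γ-33P]ATP, pH 7.5, and varying activator. Product detected by streptavidin SPA beads; EC50 is activator concentration giving 50% of maximal enzyme activity.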
Broadly, the pEC50 is −log10 of the EC50, conventionally taken in molar units. Take `O=C(O)c1cc(N2CCCC2=O)cc(N2C(=O)[C@]3(C[C@H]3c3ccc(Cl)cc3)c3ccccc32)c1` (racemic) [Example 94, (1S,2S) and (1R,2R)-3-(2-(4-chlorophenyl)-2′-oxospiro[cyclopropane-1,3′-indoline]-1′-yl)-5-(2-oxopyrrolidin-1-yl)benzoic acid]: the negative logarithm of the EC50 (pEC50) was 5.82.
The same measure for `CNC(=O)c1cccc(CN2C(=O)[C@@]3(C[C@H]3c3ccc(Cl)cc3)c3ccccc32)c1` (racemic) [Example 110, (1R,2S) and (1S,2R)-3-((2-(4-chlorophenyl)-2′-oxospiro[cyclopropane-1,3′-indoline]-1′-yl)methyl)-N-methylbenzamide]: 5.86; for `O=C(NCCCN1CCOCC1)c1cccc(CN2C(=O)[C@@]3(C[C@H]3c3ccc(Cl)cc3)c3ccccc32)c1` (racemic) [Example 112, (1R,2S) and (1S,2R)-3-((2-(4-chlorophenyl)-2′-oxospiro[cyclopropane-1,3′-indoline]-1′-yl)methyl)-N-(3-morpholinopropyl)benzamide]: 5.90.
As for `CN(C)CCN1CCN(C(=O)c2cccc(CN3C(=O)[C@@]4(C[C@H]4c4ccc(Cl)cc4)c4ccccc43)c2)CC1` (racemic) [Example 113, (1R,2S) and (1S,2R)-2-(4-chlorophenyl)-1′-(3-(4-(2-(dimethylamino)ethyl)piperazine-1-carbonyl)benzyl)spiro[cyclopropane-1,3′-indolin]-2′-one], the figure is 5.74; as for `O=C(NCCN1CCOCC1)c1cccc(CN2C(=O)[C@@]3(C[C@H]3c3ccc(Cl)cc3)c3ccccc32)c1` (racemic) [Example 114, (1R,2S) and (1S,2R)-3-((2-(4-chlorophenyl)-2′-oxospiro[cyclopropane-1,3′-indoline]-1′-yl)methyl)-N-(2-morpholinoethyl)benzamide], 5.19.
As for `CS(=O)(=O)N1CCN(C(=O)c2cccc(CN3C(=O)[C@@]4(C[C@H]4c4ccc(Cl)cc4)c4ccccc43)c2)CC1` (racemic) [Example 115, (1R,2S) and (1S,2R)-2-(4-chlorophenyl)-1′-(3-(4-(methylsulfonyl)piperazine-1-carbonyl)benzyl)spiro[cyclopropane-1,3′-indolin]-2′-one], the figure is 5.29.
In the case of `O=C(Nc1cc(C2CC2)n[nH]1)c1cccc(CN2C(=O)[C@]3(C[C@@H]3c3ccc(Cl)cc3)c3ccccc32)c1` (racemic) [Example 116, (1S,2R) and (1R,2S)-3-((2-(4-chlorophenyl)-2′-oxospiro[cyclopropane-1,3′-indoline]-1′-yl)methyl)-N-(3-cyclopropyl-1H-pyrazol-5-yl)benzamide], the negative-log EC50 (pEC50) was 5.36.
`O=C(Nc1cc(C2CC2)[nH]n1)c1cccc(CN2C(=O)[C@]3(C[C@@H]3c3ccc(Cl)cc3)c3ccccc32)c1` (racemic) [Example 117, (1S,2R) and (1R,2S)-3-((2-(4-chlorophenyl)-2′-oxospiro[cyclopropane-1,3′-indoline]-1′-yl)methyl)-N-(5-cyclopropyl-1H-pyrazol-3-yl)benzamide]: the negative-log EC50 (pEC50) was 6.00.
For `O=C1N(CC2CCNCC2)c2ccccc2[C@@]12C[C@@H]2c1ccc(Cl)cc1` (racemic) [Example 124, (1S,2R) and (1R,2S)-2-(4-chlorophenyl)-1′-(piperidin-4-ylmethyl) Spiro[cyclopropane-1,3′-indolin]-2′-one], the pEC50 was 5.27.
As for `O=C1N(CCN2CCCCC2)c2ccccc2[C@@]12C[C@@H]2c1ccc(Cl)cc1` (racemic) [Example 125, (1S,2R) and (1R,2S)-2-(4-chlorophenyl)-1′-(2-(piperidin-1-yl)ethyl)spiro[cyclopropane-1,3′-indolin]-2′-one], the figure is 5.76.
The same measure for `O=C1N(CCNCCCN2CCOCC2)c2ccccc2[C@@]12C[C@@H]2c1ccc(Cl)cc1` (racemic) [Example 127, (1S,2R) and (1R,2S)-2-(4-chlorophenyl)-1′-(2-(3-morpholinopropylamino)ethyl) spiro[cyclopropane-1,3′-indolin]-2′-one]: 5.35; for `O=C1N(CCNCCN2CCOCC2)c2ccccc2[C@@]12C[C@@H]2c1ccc(Cl)cc1` (racemic) [Example 128, (1S,2R) and (1R,2S)-2-(4-chlorophenyl)-1′-(2-(2-morpholinoethylamino)ethyl) spiro[cyclopropane-1,3′-indolin]-2′-one]: 5.69; for `O=C1N(CCN2CCN(c3ccncc3)CC2)c2ccccc2[C@@]12C[C@@H]2c1ccc(Cl)cc1` (racemic) [Example 129, (1S,2R) and (1R,2S)-2-(4-chlorophenyl)-1′-(2-(4-(pyridin-4-yl)piperazin-1-yl)ethyl) spiro[cyclopropane-1,3′-indolin]-2′-one]: 5.77.
The same measure for `O=C1N(c2c[nH]cn2)c2ccccc2[C@@]12C[C@@H]2c1ccc(Cl)cc1` (racemic) [Example 131, (1S,2R) and (1R,2S)-2-(4-chlorophenyl)-1′-(1H-imidazol-4-yl)spiro[cyclopropane-1,3′-indolin]-2′-one]: 5.49.
Regarding `CS(=O)(=O)NC(=O)c1cccc(N2C(=O)[C@]3(C[C@@H]3c3ccc(Cl)cc3)c3ccccc32)c1` (racemic) [Example 132, (1S,2R) and (1R,2S)-3-(2-(4-chlorophenyl)-2′-oxospiro[cyclopropane-1,3′-indoline]-1′-yl)-N-(methylsulfonyl)benzamide], the pEC50 is 5.81.
As for `CN1CCCC1CCNC(=O)c1cccc(CN2C(=O)[C@]3(C[C@@H]3c3ccc(Cl)cc3)c3ccccc32)c1` (stereo partly drawn) [Example 66, 3-(((1S,2R)-2-(4-chlorophenyl)-2′-oxospiro[cyclopropane-1,3′-indoline]-1′-yl)methyl)-N-(2-((S)-1-methylpyrrolidin-2-yl)ethyl)benzamide and 3-(((1R,2S)-2-(4-chlorophenyl)-2′-oxospiro[cyclopropane-1,3′-indoline]-1′-yl)methyl)-N-(2-((5)-1-methylpyrrolidin-2-yl)ethyl)benzamide], the figure is 5.97; as for “(1R,2R) and (1S,2S)-((2-(4-(methylsulfonyl)phenyl)-2′-oxospiro[cyclopropane-1,3′-indoline]-1′-yl)methyl)benzoic acid [Example 4]”, 5.66.
